Experimental findings from US4221789A, “Lactam-N-acetic acids and their amides” (UCB, Societe Anonyme, priority 1978, dated 1980) are described below.

In data set [1] the test system is rat. The experiment in a line: active avoidance test (memory retention; paw withdrawal threshold). Format: in vivo. The note with it: for minimal effective dose: sc, read-out: Active dose. The text has this: (A) The action on mnemic processes is first shown by the ability of the compounds to improve a type of memory retention in the rat. The principle of the active avoidance test (see M. GREINDL and S. PREAT, Arch.Int. Pharmacodyn.Therap.223,(1976),(1),168-171) developed in our laboratories and used for this purpose, may be described as follows: the withdrawal reaction of a rat's paw when subjected to an increasing, quantified pressure is observed. The pressure at which the withdrawal reaction is produced, is called the reaction threshold. This threshold is expressed by the number of graduations of the scale of the apparatus used (Analgesymeter Ugo Basile, Milan) and thus corresponds to the minimum pressure which brings about withdrawal when applied to the animal's paw. It is read off directly on the scale of the apparatus used.
Inversely, animals treated with a substance having a positive effect on the mnemic processes (such as piracetam) show a significant degree of retention: the stimulus to which the rats react by a reflex of avoidance is statistically lower than that of the control animals. A minimum of 20 rats per test are used (10 treated rats and 10 control rats) and the active dose is defined as the minimum dose lowering the stimulus to below 11 graduations.

Data set [2] has as its system rat. The experiment in a line: reduction of the spinal fixation time. In kind it is in vivo. The note with it: for minimal effective dose: ip, 35 min, read-out: Active dose. An excerpt: (B) The action on the mnemic processes is also shown by the reduction of the spinal fixation time, a test which has been described in literature (see C. GIURGEA and F. MOURAVIEFF-LESUISSE, Arch.Int.Pharmacodyn.191,(1971,No. 2), 279) as an elementary model of memory and which provides pharmacological reactivity in good correlation with clinical physiopathology. In the rat, after unilateral lesion of the cerebellum, there is a postural asymmetry of the hind paws. This asymmetry may-persist, even after spinal section, if the animal has passed a sufficient period of time in this position. This time, which is called the spinal fixation time, is 45 minutes under the experimental conditions applied here.
On the other hand, if spinal section is performed before the expiry of this period of time, for example 35 minutes after the onset of asymmetry, the latter disappears.
Inversely, any product which allows the rats to retain the asymmetry (thus effecting spinal fixation), when the spinal section is performed after 35 minutes, is considered to be active.
By "number of animals" is to be understood the number of animals which responded positively to the test in relation to the number of animals tested at the dose indicated: […]

A further data set deals with mice. The experiment in a line: toxicity in mice, intraperitoneal (Irwin's test). In kind it is in vivo. The text has this:
The compounds of formula I have a remarkably low toxicity.
*Dose which brings about the death of one animal out of three in Irwin's
test (S. IRWIN, Gordon Research Conference on Medicinal Chemistry, Colby
Junior College, New London, 1959).

For data set [3], the system named is papillary muscle isolated from the cat's heart. The experiment in a line: "papillary muscle" test (inotropic activity). The note with it: for activation at 10 µg/kg, 0.01 mg/kg: Felis catus, read-out: increase of the strength of muscular contraction. The method, then: The method used is that of M. K. CATTELL and H. GOLD (J.Pharmacol.Exptl. Therap.62, (1938), 116-125). The experiment is carried out on a papillary muscle isolated from the cat's heart and dipped in a physiological salt solution to which the compound to be tested is added.

A short description of data set [4]: toxicity in the rat, intravenous or oral (LD 50). The note with it: in vivo. The text has this:
Furthermore, when administered intravenously (i.v.) or orally in the rat, the compounds also have a low toxicity, as indicated in the following Table: […]

Where [5] appears, read: rat, intraperitoneal, spinal section after 35 minutes.
[6] abbreviates: rat, intraperitoneal, 0.2 mmol/kg, spinal section after 35 minutes.
[7] abbreviates: rat, subcutaneous, minimum dose lowering the stimulus to below 11 graduations, tested 24 hours later.
The mark [8] stands for this setting: rat, intraperitoneal, 0.1 mmol/kg, spinal section after 35 minutes.

Counter-ions that a name gives are not always drawn. Like-named read-outs stand apart in the source and are kept apart here.

As to `NC(=O)CN1CCCC1=O` [Compound A, 2-oxo-1-pyrrolidineacetamide, reference compound], the minimal effective dose in the data set with rat [1] (Rattus norvegicus, 24 h) was determined as 25 µmol/kg; in the data set with rat [2] (setting [5]) it was 200 µmol/kg. Further, the “Number of animals which responded positively / number tested” value with rat [2] (setting [6]) is reported as 4/9.
For `CCC(C(N)=O)N1CCCC1=O` (stereo not drawn) [Compound B, alpha-ethyl-2-oxo-1-pyrrolidineacetamide, reference compound], in that order: 5 µmol/kg, 200 µmol/kg and 7/22.
In the case of `O=C(O)CN1CCCC1=O` [Compound C, 2-oxo-1-pyrrolidineacetic acid, reference compound], the “activity in the active avoidance test” value in the data set on rat [1] (rat, subcutaneous, at the dose of 0.1 mmol/kg) is “inactive”. For the same molecule, the minimal effective dose in the data set on rat [2] (setting [5]) was found to be 320 µmol/kg. The “Number of animals which responded positively / number tested” value in the data set with rat [2] (rat, intraperitoneal, 0.32 mmol/kg, spinal section after 35 minutes) was 2/4.
Regarding `O=C(O)C(O)N1CCCC1=O` (stereo not drawn) [Example 2, alpha-Hydroxy-2-oxo-1-pyrrolidineacetic acid (dicyclohexylamine salt)], the results for the minimal effective dose with rat [1] (setting [7]) and in the data set with rat [2] (setting [5]) were 5 µmol/kg and 100 µmol/kg, respectively. Also, the “Number of animals which responded positively / number tested” value in the data set on rat [2] (setting [8]) is listed as 4/7. Further, in the data set with mice (mouse, in vivo, ip), the “Dose which brings about the death of one animal out of three in Irwin's test” value (shortened to “Dose which brings about the death”) is above 102 mg/kg.
Consider `O=C(O)C(CCO)N1CCCC1=O` (stereo not drawn) [Example 3, alpha-(2-Hydroxyethyl)-2-oxo-1-pyrrolidineacetic acid], for which the minimal effective dose in the data set with rat [2] (setting [5]) is 100 µmol/kg. For the same molecule, the “Number of animals which responded positively / number tested” value in the data set with rat [2] (setting [8]) is reported as 4/7. Moreover, the “Dose which brings about the death” value in the data set on mice (mouse, in vivo, ip) is recorded as above 1222 mg/kg.
As for `NC(=O)C(CCO)N1CCCC1=O` (stereo not drawn) [Example 4.1, alpha-(2-Hydroxyethyl)-2-oxo-1-pyrrolidineacetamide], the minimal effective dose with rat [1] (Rattus norvegicus, 24 h) stood at 2 µmol/kg; with rat [2] (Rattus norvegicus) it was 100 µmol/kg. The “Number of animals which responded positively / number tested” value with rat [2] (setting [8]) is reported as 3/7. In data set [3], the activation at 10 µg/kg, 0.01 mg/kg was determined as 7%. Further, the inotropic activity result in data set [3] (isolated cat papillary muscle, comparison with caffeine) is given as “superior to that of caffeine”. For the same molecule, in the data set with mice (mice, intraperitoneal), the “Dose which brings about the death” value was above 1116 mg/kg. The LD50 in data set [4] (iv) is above 4000 mg/kg; in data set [4] (po, orally) it was above 10000 mg/kg.
For the molecule `CC1CCN(C(CCO)C(N)=O)C1=O` (stereo not drawn) [Example 4.2, alpha-(2-Hydroxyethyl)-3-methyl-2-oxo-1-pyrrolidineacetamide], the “Dose which brings about the death” value with mice (mice, intraperitoneal) is above 1200 mg/kg.
The same measure, in the same setting: the same measure for `CC1CC(C)N(C(CCO)C(N)=O)C1=O` (stereo not drawn) [Example 4.3, alpha-(2-Hydroxyethyl)-3,5-dimethyl-2-oxo-1-pyrrolidineacetamide]: above 1286 mg/kg.
For the molecule `CCCCC1CCN(C(CCO)C(N)=O)C1=O` (stereo not drawn) [Example 4.4, 3-n-Butyl-alpha-(2-hydroxyethyl)-2-oxo-1-pyrrolidineacetamide], the “Dose which brings about the death” value in the data set on mice (mouse, in vivo, ip) is given as above 1452 mg/kg.
For the molecule `NC(=O)C(CCO)N1CC(c2ccc(Cl)cc2)C(c2ccccc2)C1=O` (stereo not drawn) [Example 4.5, 4-p-Chlorophenyl-alpha-(2-hydroxyethyl)-3-phenyl-2-oxo-1-pyrrolidineacetamide], in the data set with mice (mouse, in vivo, ip), the “Dose which brings about the death” value was above 224 mg/kg.
For the molecule `CCCCNC(=O)C(CCO)N1CCCC1=O` (stereo not drawn) [Example 5.1, N-n-Butyl-alpha-(2-hydroxyethyl)-2-oxo-1-pyrrolidineacetamide], the “Dose which brings about the death” value in the data set on mice (mice, intraperitoneal) was above 1452 mg/kg.
Turning to `O=C(NC1CCCCC1)C(CCO)N1CCCC1=O` (stereo not drawn) [Example 5.2, N-Cyclohexyl-alpha-(2-hydroxyethyl)-2-oxo-1-pyrrolidineacetamide], the “Dose which brings about the death” value with mice (mouse, in vivo, ip) is listed as above 1608 mg/kg.
For `CCN(CC)C(=O)C(CCO)N1CCCC1=O` (stereo not drawn) [Example 5.3, N,N-Diethyl-alpha-(2-hydroxyethyl)-2-oxo-1-pyrrolidineacetamide], the minimal effective dose with rat [1] (Rattus norvegicus, 24 h) was found to be 0.2 µmol/kg. The “Dose which brings about the death” value with mice (mice, intraperitoneal) was above 1452 mg/kg.
Consider `CC(C)NC(=O)C(CCO)N1CCCC1=O` (stereo not drawn) [Example 5.4, alpha-(2-Hydroxyethyl)-N-isopropyl-2-oxo-1-pyrrolidineacetamide], for which the “Dose which brings about the death” value in the data set on mice (mice, intraperitoneal) was above 1368 mg/kg.
In the case of `O=C(C(CCO)N1CCCC1=O)N1CCOCC1` (centres unmarked) [Example 6.1, 4-[4-Hydroxy-2-(2-oxo-1-pyrrolidinyl)butyryl]-morpholine], the minimal effective dose in the data set with rat [1] (Rattus norvegicus, 24 h) came to 0.2 µmol/kg. In addition, the “Dose which brings about the death” value in the data set on mice (mice, intraperitoneal) was above 1536 mg/kg.
Take `O=C(C(CCO)N1CCCC1=O)N1CCCCC1` (centres unmarked) [Example 6.2, 1-[4-Hydroxy-2-(2-oxo-1-pyrrolidinyl)butyryl]-piperidine]: the “Dose which brings about the death” value in the data set with mice (mice, intraperitoneal) is above 1524 mg/kg.
As for `CCCNC(=O)C(CCO)N1CCCC1=O` (stereo not drawn) [Example 6.3, alpha-(2-Hydroxyethyl)-N-propyl-2-oxo-1-pyrrolidineacetamide], the minimal effective dose with rat [1] (Rattus norvegicus, 24 h) is 0.1 µmol/kg. Also, the “Dose which brings about the death” value in the data set with mice (mice, intraperitoneal) is given as above 1368 mg/kg.
`O=C(C(CCO)N1CCCC1=O)N1CCN(Cc2ccccc2)CC1` (centres unmarked) [Example 6.4, 1-Benzyl-4-[4-hydroxy-2-(2-oxo-1-pyrrolidinyl)butyryl]-piperazine]: the minimal effective dose with rat [1] (setting [7]) was 1 µmol/kg. In the data set with mice (mouse, in vivo, ip), the “Dose which brings about the death” value is reported as above 345 mg/kg.
On the same counts, the results for `O=C(NC1CCCC1)C(CCO)N1CCCC1=O` (stereo not drawn) [Example 6.5, N-cyclopentyl-alpha-(2-hydroxyethyl)-2-oxo-1-pyrrolidineacetamide] are 0.2 µmol/kg and above 762 mg/kg.
Regarding `O=C(NCc1ccccc1)C(CCO)N1CCCC1=O` (stereo not drawn) [Example 6.6, N-Benzyl-alpha-(2-hydroxyethyl)-2-oxo-1-pyrrolidineacetamide], the minimal effective dose was 2 µmol/kg in the data set on rat [1] (Rattus norvegicus, 24 h) and 100 µmol/kg in the data set on rat [2] (Rattus norvegicus). For the same molecule, the “Number of animals which responded positively / number tested” value with rat [2] (setting [8]) is given as 3/7. Further, in the data set with mice (mice, intraperitoneal), the “Dose which brings about the death” value was 822 mg/kg.
Turning to `Cn1c(=O)c2c(ncn2C)n(C)c1=O` [caffeine, reference compound], in data set [3] (isolated cat papillary muscle, at the dose of 10 μg/kg), the activation at 10 µg/kg, 0.01 mg/kg was 4%.
